Source: paper PMC5360100 (Biochemical pharmacology, 2011)

What was measured:
Assay in all cases: […]cAMP formation from [alpha-32P]ATP, Sf9 membranes
Assay type in all cases: biochemical
canine AC5 [1] = target: T1, canine AC5 (Canis lupus, UniProt P30803); conditions: 300 µM; 7 mM Mg2+, 40 μM ATP, 10 μM GTPγS, pH 7.4, 30°C, 3% DMSO
bovine AC1 [2] = target: T2, bovine AC1 (Bos taurus, UniProt P19754); conditions: 300 µM; 7 mM Mg2+, 40 μM ATP, 10 μM GTPγS, pH 7.4, 30°C, 3% DMSO
rat AC2 [3] = target: T3, rat AC2 (Rattus norvegicus, UniProt P26769); conditions: 300 µM; 7 mM Mg2+, 40 μM ATP, 10 μM GTPγS, pH 7.4, 30°C, 3% DMSO
canine AC5 [4] = target: T1, canine AC5
rat AC2 [5] = target: T3, rat AC2
bovine AC1 [6] = target: T2, bovine AC1

T1 sequence (P30803 whole entry): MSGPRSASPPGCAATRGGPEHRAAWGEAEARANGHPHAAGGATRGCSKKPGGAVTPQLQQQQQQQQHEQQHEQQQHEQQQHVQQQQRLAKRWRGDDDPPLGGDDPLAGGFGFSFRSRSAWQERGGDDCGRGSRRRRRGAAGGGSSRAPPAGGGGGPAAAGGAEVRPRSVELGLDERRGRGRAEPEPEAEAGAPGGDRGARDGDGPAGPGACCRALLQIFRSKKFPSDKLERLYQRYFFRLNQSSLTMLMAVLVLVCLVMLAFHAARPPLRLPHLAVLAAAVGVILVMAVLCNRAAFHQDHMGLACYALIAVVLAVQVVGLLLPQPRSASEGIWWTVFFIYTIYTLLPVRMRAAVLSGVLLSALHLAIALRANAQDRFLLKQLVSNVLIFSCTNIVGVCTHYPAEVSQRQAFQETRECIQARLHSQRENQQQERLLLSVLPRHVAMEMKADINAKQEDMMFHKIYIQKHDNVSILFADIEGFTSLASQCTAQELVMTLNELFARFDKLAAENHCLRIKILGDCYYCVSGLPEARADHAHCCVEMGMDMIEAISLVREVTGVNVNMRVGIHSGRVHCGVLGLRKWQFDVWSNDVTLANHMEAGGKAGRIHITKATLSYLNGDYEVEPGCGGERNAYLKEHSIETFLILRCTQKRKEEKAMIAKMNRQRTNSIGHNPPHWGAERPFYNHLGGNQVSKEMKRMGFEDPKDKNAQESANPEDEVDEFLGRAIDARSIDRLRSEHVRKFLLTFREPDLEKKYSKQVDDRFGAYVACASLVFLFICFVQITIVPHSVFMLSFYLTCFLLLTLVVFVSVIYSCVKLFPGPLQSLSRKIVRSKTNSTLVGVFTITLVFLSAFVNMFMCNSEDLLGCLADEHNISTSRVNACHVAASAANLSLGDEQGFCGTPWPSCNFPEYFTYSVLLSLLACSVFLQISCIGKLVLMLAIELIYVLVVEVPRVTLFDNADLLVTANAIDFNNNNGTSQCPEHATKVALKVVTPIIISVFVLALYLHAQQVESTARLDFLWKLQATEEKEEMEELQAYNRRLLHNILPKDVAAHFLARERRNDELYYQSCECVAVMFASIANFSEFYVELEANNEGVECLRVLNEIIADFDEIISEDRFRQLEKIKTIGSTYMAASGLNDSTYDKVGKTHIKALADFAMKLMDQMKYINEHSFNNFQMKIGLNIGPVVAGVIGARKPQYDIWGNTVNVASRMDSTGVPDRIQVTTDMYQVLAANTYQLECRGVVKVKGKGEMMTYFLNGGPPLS
T2 sequence (P19754 whole entry): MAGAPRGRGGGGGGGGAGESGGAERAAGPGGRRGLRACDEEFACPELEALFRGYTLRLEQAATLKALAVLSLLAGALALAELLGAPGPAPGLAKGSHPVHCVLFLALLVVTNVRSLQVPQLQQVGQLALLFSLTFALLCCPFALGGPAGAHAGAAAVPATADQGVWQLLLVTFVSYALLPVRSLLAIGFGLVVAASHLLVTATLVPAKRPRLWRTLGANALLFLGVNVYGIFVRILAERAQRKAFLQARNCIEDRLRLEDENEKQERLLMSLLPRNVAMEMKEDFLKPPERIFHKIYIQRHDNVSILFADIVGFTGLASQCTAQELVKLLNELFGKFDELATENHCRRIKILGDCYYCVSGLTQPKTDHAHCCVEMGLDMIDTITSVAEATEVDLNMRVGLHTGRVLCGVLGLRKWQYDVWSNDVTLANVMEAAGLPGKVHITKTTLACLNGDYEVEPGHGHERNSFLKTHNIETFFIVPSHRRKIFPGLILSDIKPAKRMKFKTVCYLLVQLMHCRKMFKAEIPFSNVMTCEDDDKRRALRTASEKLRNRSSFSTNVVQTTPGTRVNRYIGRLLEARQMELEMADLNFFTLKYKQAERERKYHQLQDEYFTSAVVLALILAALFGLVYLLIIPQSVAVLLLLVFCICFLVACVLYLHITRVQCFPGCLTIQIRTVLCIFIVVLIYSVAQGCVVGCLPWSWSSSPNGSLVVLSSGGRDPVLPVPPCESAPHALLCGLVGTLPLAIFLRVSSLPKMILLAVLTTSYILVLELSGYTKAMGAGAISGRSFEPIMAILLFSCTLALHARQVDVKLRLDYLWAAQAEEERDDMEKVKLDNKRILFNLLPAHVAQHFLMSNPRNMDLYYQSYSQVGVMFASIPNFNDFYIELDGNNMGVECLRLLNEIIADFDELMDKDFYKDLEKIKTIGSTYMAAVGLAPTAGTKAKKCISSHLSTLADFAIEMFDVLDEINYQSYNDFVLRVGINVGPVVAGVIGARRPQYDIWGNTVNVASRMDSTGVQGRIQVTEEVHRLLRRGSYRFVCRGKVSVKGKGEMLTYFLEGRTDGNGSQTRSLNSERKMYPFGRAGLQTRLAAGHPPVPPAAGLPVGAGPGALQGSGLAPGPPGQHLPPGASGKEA
T3 sequence (P26769 whole entry): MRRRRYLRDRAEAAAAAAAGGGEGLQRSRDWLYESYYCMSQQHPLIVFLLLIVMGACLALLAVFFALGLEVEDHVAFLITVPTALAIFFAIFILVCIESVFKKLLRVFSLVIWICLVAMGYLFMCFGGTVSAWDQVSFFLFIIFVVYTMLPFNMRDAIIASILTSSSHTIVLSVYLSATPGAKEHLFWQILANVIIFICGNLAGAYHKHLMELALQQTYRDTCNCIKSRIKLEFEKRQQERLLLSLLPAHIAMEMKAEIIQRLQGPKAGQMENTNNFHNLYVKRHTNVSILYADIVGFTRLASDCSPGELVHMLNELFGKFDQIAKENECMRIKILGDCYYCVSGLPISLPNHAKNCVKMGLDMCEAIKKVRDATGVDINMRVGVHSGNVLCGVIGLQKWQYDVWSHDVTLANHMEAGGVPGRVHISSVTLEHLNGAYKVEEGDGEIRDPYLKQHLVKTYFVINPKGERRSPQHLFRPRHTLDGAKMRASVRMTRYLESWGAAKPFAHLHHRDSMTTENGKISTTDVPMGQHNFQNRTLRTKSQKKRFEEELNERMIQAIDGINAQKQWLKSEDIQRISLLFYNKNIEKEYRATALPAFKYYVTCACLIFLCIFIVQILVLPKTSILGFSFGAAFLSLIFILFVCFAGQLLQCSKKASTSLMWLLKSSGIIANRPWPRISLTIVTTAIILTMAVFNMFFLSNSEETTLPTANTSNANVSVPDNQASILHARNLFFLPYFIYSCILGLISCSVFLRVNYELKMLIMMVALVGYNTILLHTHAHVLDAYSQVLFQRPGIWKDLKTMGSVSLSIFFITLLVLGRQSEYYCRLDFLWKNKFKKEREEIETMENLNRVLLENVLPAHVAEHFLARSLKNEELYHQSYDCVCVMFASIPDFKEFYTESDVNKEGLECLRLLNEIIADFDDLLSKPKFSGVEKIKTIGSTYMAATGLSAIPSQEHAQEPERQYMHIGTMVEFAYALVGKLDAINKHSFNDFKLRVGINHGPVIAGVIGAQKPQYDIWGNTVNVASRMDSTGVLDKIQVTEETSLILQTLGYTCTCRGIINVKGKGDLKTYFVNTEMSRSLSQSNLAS

**Q.** For `C=C[C@@]1(C)CC(=O)[C@]2(O)[C@@]3(C)CCCC(C)(C)[C@@H]3[C@H](O)[C@H](OC(C)=O)[C@@]2(C)O1` [1d-FS], which “AC5 / Efficacy [%]” value (canine AC5 [1]) is on record?
**A.** 14.7 ± 4.4%

**Q.** What about the “AC1 / Efficacy [%]” value (bovine AC1 [2]) of the same compound?
**A.** 11.1 ± 4.7%

**Q.** What about the “AC2 / Efficacy [%]” value (rat AC2 [3]) of the same compound?
**A.** 1.7 ± 3.4%

**Q.** Which EC50 (canine AC5 [4]) does the source give for `C=C[C@@]1(C)CC(=O)[C@]2(O)[C@@]3(C)[C@@H](O)CCC(C)(C)[C@@H]3[C@H](OC(C)=O)[C@H](O)[C@@]2(C)O1` [6A7DA-FS] here?
**A.** 52.1 ± 16.7 µM

**Q.** What about the EC50 (rat AC2 [5]) of the same compound?
**A.** 1.8 µM

**Q.** What about the EC50 (bovine AC1 [6]) of the same compound?
**A.** 6.5 ± 2.1 µM

**Q.** With `C=C[C@@]1(C)CC(=O)[C@H]2[C@](C)(O1)[C@@H](OC(C)=O)[C@@H](O)[C@H]1C(C)(C)CC[C@H](O)[C@@]12C` [9d-FS] as the compound, how does the EC50 (canine AC5 [4]) read?
**A.** 77.8 ± 46.1 µM

**Q.** And the EC50 (rat AC2 [5])?
**A.** 242 ± 113 µM

**Q.** What about the EC50 (bovine AC1 [6]) of the same compound?
**A.** 16.8 ± 3 µM

**Q.** For `C=C[C@@]1(C)CC(=O)[C@]2(O)[C@@]3(C)[C@@H](O)CCC(C)(C)[C@@H]3[C@H](O)[C@H](OC(C)=O)[C@@]2(C)O1` [FS], which EC50 (canine AC5 [4]) is on record?
**A.** 4.6 ± 1.5 µM

**Q.** What about the EC50 (rat AC2 [5]) of the same compound?
**A.** 47.3 ± 8.1 µM

**Q.** What about the EC50 (bovine AC1 [6]) of the same compound?
**A.** 5.5 ± 0.8 µM
